US11691949B2, “Quinoline sulfonamide compounds and their use as antibacterial agents” (OTAGO INNOVATION LIMITED, priority 2017, dated 2023)
≈ marks a conversion by molar mass, not a printed value. Where a name gives a salt, the structure may show the parent alone. Read-outs that look alike come from different tables or passages of the source.

Key:
Format in all cases: cell-based
[1] = tested on: S. uberis ATCC 19436; test: MIC by broth microdilution, S. uberis; settings: Streptococcus uberis
In short: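 The MIC against S. uberis ATCC 19436 was the lowest compound concentration showing no growth by OD600 after 24 h at 37° C. with 200 rpm shaking. Cultures grown overnight were adjusted to OD600 ~0.025 so wells held approximately 5×10^5 cfu/mL in THB. Two-fold dilution series were made at a final volume of 200 μl. Media and untreated controls were run in triplicate on each plate.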

[2] = tested on: S. aureus ATCC 6538; test: MIC by broth microdilution, S. aureus; settings: Staphylococcus aureus
In short: (§1)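 Media: TSB or CAMHB for S. aureus, LB or CAMHB for E. coli, with zinc sulphate to 50 μM final where required. Cells at ~5×10^5 cfu/mL met two-fold compound series; growth was scored by OD600 after 24 h shaking at 37° C.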

[3] = tested on: E. coli ATCC 10596; test: MIC by broth microdilution, E. coli; settings: Escherichia coli
In short: as §1

[4] = tested on: S. uberis ATCC 19436; test: MBC by Miles-Misra drop-plate method, S. uberis; settings: Streptococcus uberis
Description: (§2) Antibacterial susceptibility testing was performed in triplicate (biological) by measuring minimum inhibitory concentrations (MICs) by broth microdilution in 96-well flat bottom microtiter plates (ThermoFisher Scientific, New Zealand). S. uberis ATCC 19436, S. aureus ATCC 6538, or E. coli ATCC 10596 cells grown overnight were diluted to an OD600 of approximately 0.025, so that the final concentration of cells in the MIC assay was approximately 5×10^5 cfu/mL in media as follows: S. uberis; Todd Hewitt Broth (THB), S. aureus; Tryptic Soy Broth (TSB) and Cation Adjusted Muller Hinton Broth (CAMHB), and E. coli; Lysogeny Borth (LB) and CAMHB, before being dispensed into microtiter wells. As required additional sterile Zinc Sulphate (Heptahydrate) was supplemented into the media, so the final concentration was 50 μM. Test compounds were added to starting wells and two-fold serial dilutions were undertaken to generate a range of inhibitor concentrations at a final volume of 200 μl. Media and test compound-free (untreated) controls were included in each microtiter plate in triplicate. After 24 h incubation at 37° C. and 200 rpm, the OD600 of wells were read using a Varioskan Flash plate reader (ThermoFisher Scientific, New Zealand). The MIC was reported as the lowest concentration of the test compound for which no growth occurred, as determined by OD600 readings. The minimum bactericidal concentration (MBC) was determined using the Miles-Misra drop-plate method to measure the viability of cells in response to test compound challenge.

[5] = tested on: S. aureus ATCC 6538; test: MBC by Miles-Misra drop-plate method, S. aureus; settings: Staphylococcus aureus
Description: as §2

[6] = tested on: E. coli ATCC 10536; test: MBC by Miles-Misra drop-plate method, E. coli; settings: Escherichia coli
Description: as §2

[7] = ATCC19436, read-out: S. uberis ATCC 19436 MIC, No Zinc
[8] = ATCC19436, read-out: S. uberis ATCC 19436 MIC, Zinc (50 μM)
[9] = ATCC6538, read-out: S. aureus ATCC 6538 MIC, No Zinc
[10] = ATCC6538, read-out: S. aureus ATCC 6538 MIC, Zinc (50 μM)
[11] = ATCC 10536 / ATCC 10596, read-out: E. coli ATCC 10536 MIC, No Zinc
[12] = ATCC 10536 / ATCC 10596, read-out: E. coli ATCC 10536 MIC, Zinc (50 μM)
[13] = ATCC19436, read-out: S. uberis ATCC 19436 MBC, No Zinc
[14] = ATCC19436, read-out: S. uberis ATCC 19436 MBC, Zinc (50 μM)
[15] = ATCC6538, read-out: S. aureus ATCC 6538 MBC, No Zinc
[16] = ATCC6538, read-out: S. aureus ATCC 6538 MBC, Zinc (50 μM)
[17] = ATCC10536, read-out: E. coli ATCC 10536 MBC, No Zinc
[18] = ATCC10536, read-out: E. coli ATCC 10536 MBC, Zinc (50 μM)
[19] = ATCC19436, No Zinc, read-out: S. uberis ATCC 19436 MIC
[20] = ATCC19436, Zinc (50 μM), read-out: S. uberis ATCC 19436 MIC
[21] = ATCC6538, No Zinc, read-out: S. aureus ATCC 6538 MIC
[22] = ATCC6538, Zinc (50 μM), read-out: S. aureus ATCC 6538 MIC
[23] = ATCC 10536 / ATCC 10596, No Zinc, read-out: E. coli ATCC 10536 MIC
[24] = ATCC 10536 / ATCC 10596, Zinc (50 μM), read-out: E. coli ATCC 10536 MIC
[25] = ATCC19436, No Zinc, read-out: S. uberis ATCC 19436 MBC
[26] = ATCC19436, Zinc (50 μM), read-out: S. uberis ATCC 19436 MBC
[27] = ATCC6538, No Zinc, read-out: S. aureus ATCC 6538 MBC
[28] = ATCC6538, Zinc (50 μM), read-out: S. aureus ATCC 6538 MBC
[29] = ATCC10536, No Zinc, read-out: E. coli ATCC 10536 MBC
[30] = ATCC10536, Zinc (50 μM), read-out: E. coli ATCC 10536 MBC

SMILES	MIC [1, 7] [µg/mL]	MIC [1, 8] [µg/mL]	MBC [4, 13] [µg/mL]	MBC [4, 14] [µg/mL]	MBC [5, 15] [µg/mL]	MBC [5, 16] [µg/mL]	MBC [6, 17] [µg/mL]	MBC [6, 18] [µg/mL]	MIC [1, 19] [µg/mL]	MIC [1, 20] [µg/mL]	MIC [2, 21] [µg/mL]	MIC [2, 22] [µg/mL]	MIC [3, 23] [µg/mL]	MIC [3, 24] [µg/mL]	MBC [4, 25] [µg/mL]	MBC [4, 26] [µg/mL]	MBC [5, 27] [µg/mL]	MBC [5, 28] [µg/mL]	MBC [6, 29] [µg/mL]	MBC [6, 30] [µg/mL]	other results
CN1CCN(CCCNCc2ccc3cccc(NS(=O)(=O)c4ccc(C(F)(F)F)cc4)c3n2)CC1 [ZDR117, N-(2-(((3-(4-Methylpiperazin-1-yl)propyl)amino)methyl)quinolin-8-yl)-4-(trifluoromethyl)benzenesulfonamide di-trifluoroacetate]	16 (≈ 30.7 µM)	4 (≈ 7.67 µM)	16 (≈ 30.7 µM)	4 (≈ 7.67 µM)	64 (≈ 123 µM)	64 (≈ 123 µM)	256 (≈ 491 µM)	64 (≈ 123 µM)													MIC [2, 9]: 64 µg/mL (≈ 123 µM); MIC [2, 10]: 64 µg/mL (≈ 123 µM); MIC [3, 11]: 128 µg/mL (≈ 245 µM); MIC [3, 12]: 32 µg/mL (≈ 61.3 µM)
O=S(=O)(Nc1cccc2ccc(CNC(CO)CO)nc12)c1ccc(C(F)(F)F)cc1 [ZDR092, N-(2-(((1,3-Dihydroxypropan-2-yl)amino)methyl)quinolin-8-yl)-4-(trifluoromethyl)benzenesulfonamide]									64 (≈ 141 µM)	16 (≈ 35.1 µM)	32 (≈ 70.3 µM)	32 (≈ 70.3 µM)	> 256	> 256	64 (≈ 141 µM)	8 (≈ 17.6 µM)	256 (≈ 562 µM)	32 (≈ 70.3 µM)	256 (≈ 562 µM)	> 256	
CN(C)CCCNC(=O)CNCc1ccc2cccc(NS(=O)(=O)c3ccc(C(F)(F)F)cc3)c2n1 [ZDR261, N-(3-(Dimethylamino)propyl)-2-(((8-((4-(trifluoromethyl)phenyl)sulfonamido)quinolin-2-yl)methyl)amino)acetamide di-trifluoroacetate]	32 (≈ 61.1 µM)	16 (≈ 30.6 µM)	16 (≈ 30.6 µM)	16 (≈ 30.6 µM)	128 (≈ 244 µM)	64 (≈ 122 µM)	> 256	> 256													MIC [2, 9]: 32 µg/mL (≈ 61.1 µM); MIC [2, 10]: 32 µg/mL (≈ 61.1 µM); MIC [3, 11]: 64 µg/mL (≈ 122 µM); MIC [3, 12]: 64 µg/mL (≈ 122 µM)
O=S(=O)(Nc1cccc2ccc(CNCCCN3CCOCC3)nc12)c1ccc(C(F)(F)F)cc1 [ZDR116, N-(2-(((3-Morpholinopropyl)amino)methyl)quinolin-8-yl)-4-(trifluoromethyl)benzenesulfonamide]									32 (≈ 62.9 µM)	2 (≈ 3.93 µM)	64 (≈ 126 µM)	64 (≈ 126 µM)	> 256	> 256	64 (≈ 126 µM)	2 (≈ 3.93 µM)	128 (≈ 252 µM)	> 256	> 256	> 256	
O=C(N/N=C/c1ccc2cccc(NS(=O)(=O)c3ccc(C(F)(F)F)cc3)c2n1)C1CCCNC1 (mixture of isomers) [ZDR124, (E/Z)—N-(2-((2-(Piperidine-3-carbonyl)hydrazineylidene)methyl)quinolin-8-yl)-4-(trifluoromethyl)benzenesulfonamide trifluoroacetate]			16	16	> 256	> 256	128	32	32	16	16	16	128	32							
CN(C)CCCNC(=O)c1ccc2cccc(NS(=O)(=O)c3ccc(C(F)(F)F)cc3)c2n1 [ZDR224, N-(3-(Dimethylamino)propyl)-8-((4-(trifluoromethyl)phenyl)sulfonamido)quinoline-2-carboxamide trifluoroacetate]	64	16	64	8	128	32	> 256	256													MIC [2, 9]: 128 µg/mL; MIC [2, 10]: 32 µg/mL; MIC [3, 11]: 256 µg/mL; MIC [3, 12]: 256 µg/mL
O=S(=O)(Nc1cccc2ccc(CNc3ccccc3O)nc12)c1ccc(C(F)(F)F)cc1 [ZDR171, N-(2-(((2-Hydroxyphenyl)amino)methyl)quinolin-8-yl)-4-(trifluoromethyl)benzenesulfonamide]									8 (≈ 16.9 µM)	0.5 (≈ 1.06 µM)	4 (≈ 8.45 µM)	4 (≈ 8.45 µM)	> 256	> 256	8 (≈ 16.9 µM)	0.5 (≈ 1.06 µM)	16 (≈ 33.8 µM)	32 (≈ 67.6 µM)	> 256	> 256	
O=C(N/N=C/c1ccc2cccc(NS(=O)(=O)c3ccc(C(F)(F)F)cc3)c2n1)c1cccnc1 [ZDR121, (E)-N-(2-((2-Nicotnoylhydrazineylidene)methyl)quinolin-8-yl)-4-(trifluoromethyl)benzenesulfonamide]									32 (≈ 64.1 µM)	2 (≈ 4 µM)	16 (≈ 32 µM)	16 (≈ 32 µM)	> 256	> 256	256 (≈ 513 µM)	32 (≈ 64.1 µM)	64 (≈ 128 µM)	256 (≈ 513 µM)	> 256	> 256	
O=S(=O)(Nc1cccc2ccc(CNCCN3CCOCC3)nc12)c1ccc(C(F)(F)F)cc1 [ZDR112, N-(2-(((2-Morpholinoethyl)amino)methyl)quinolin-8-yl)-4-(trifluoromethyl)benzenesulfonamide]									64 (≈ 129 µM)	1 (≈ 2.02 µM)	16 (≈ 32.4 µM)	32 (≈ 64.7 µM)	> 256	> 256	64 (≈ 129 µM)	2 (≈ 4.04 µM)	> 256	256 (≈ 518 µM)	128 (≈ 259 µM)	> 256	
